Consider 3 compounds from patent US8969395B2, “Triterpenoid derivatives useful as antiproliferative agents” (Universidade de Coimbra, priority 2009, dated 2015).

Broadly, the IC50 is the midpoint of a concentration-inhibition curve. A higher IC50 goes with weaker potency in that assay.

In test [1] the test system is PC-3 (human prostate adenocarcinoma). In words: Cytotoxic activity, PC-3. In kind it is cell-based. To be noted: mean ±SD. The protocol: (§1) Compounds presented in Table 6 were also tested in the following cell lines: PC-3 (human prostate adenocarcinoma), LNCaP (human prostate adenocarcinoma), LAPC4 (human prostate adenocarcinoma) and HT-29 (human colon adenocarcinoma).

In test [2] the test system is LNCaP (human prostate adenocarcinoma). In words: Cytotoxic activity, LNCaP. Format: cell-based. Particulars: mean ±SD. The protocol:
as §1

The subject of test [3] is LAPC4 (human prostate adenocarcinoma). Briefly: Cytotoxic activity, LAPC4. Format: cell-based. To be noted: mean ±SD. The protocol:
as §1

For the next test, the system named is HeLa cells. Briefly: Cell cycle analysis by flow cytometry (FACS, PI), HeLa. In kind it is cell-based, human. To be noted: compound at its IC50, 72 h. The protocol:
The effects on the cell cycle of some of these compounds were assessed through flow cytometry by using a fluorescence-activated cell sorter (FACS) (Table 5 below). For this assay 2.3×10^5 HepG2 cells/well, 2.9×10^4 HeLa cells/well, 1.6×10^5 Jurkat cells/well and 1.4×10^5 Chang liver cells/well were plated in 6 well plates with 2 ml of medium. The number of cells was determined by the relationship number of cells/area wells, considering the number of cells that were cultured in 96-well plates. […] Chang liver cells were incubated with compounds 20, […] at concentrations corresponding to the IC80 determined for HepG2 at 72 h. Following 72 h. of incubation, cells were harvested by mild trypsinization, collected by centrifugation and stained in ice-cold Tris-buffered saline (TBS), containing 1 mg/ml PI, 10 mg/ml RNAse free of DNAase and 0.1% Igepal CA-630 for 1 h at 4° C. FACS analysis was carried out at 488 nm in an Epics XL flow cytometer (Coulter Corporation, Hialeah, Fla.). Data from 8×10^3 cells were collected and analyzed using Multicycle program (Phoenix Flow Systems, San Diego, Calif.). All experiments were performed three times with three replicates per experiment. […] To explore the selectivity of the effect on tumor cells, we also tested compounds 20, 44 and 46 in a non-malignant cell line. Chang liver cells were treated with the compounds at the IC80 values determined for HepG2 after 72 h of incubation and no effect was observed, indicating a selective effect of these agents (Table 5 below).
(In general: A flow cytometer gives signals particle by particle.)

For the compound `C=C(C)[C@@H]1CC[C@]2(CO)CC[C@]3(C)[C@H](CC[C@@H]4[C@@]5(C)CC[C@H](OC(=O)n6ccnc6)C(C)(C)[C@@H]5CC[C@]43C)[C@@H]12` [Compound 20, 28-hydroxy-lup-20(29)-en-3β-yl-1H-imidazole-1-carboxylate], in test [1], half-maximal inhibition (IC50) was put at 9.2 ± 0.7 µM. The same compound yielded an IC50 in test [2] of 15 ± 1.8 µM. Also, the IC50 in test [3] stood at 16.4 ± 2.1 µM. Further, in the test on HeLa cells, the “Phase of cell cycle (% of cells) G0/G1” value is on record as 50.6 ± 1.3 % of cells, the “Phase of cell cycle (% of cells) G2/M” value is 13.0 ± 1.4 % of cells and the “Phase of cell cycle (% of cells) S” value is 36.4 ± 2.4 % of cells.
`C=C(C)[C@@H]1CC[C@]2(C(=O)n3ccnc3)CC[C@]3(C)[C@H](CC[C@@H]4[C@@]5(C)CCC(=O)C(C)(C)[C@@H]5CC[C@]43C)[C@@H]12` [Compound 44, 28-(1H-imidazol-1-yl)-lup-20(29)-en-3,28-dione] gave an IC50 in test [1] of 6.9 ± 1.1 µM. For the same compound, in test [2], the IC50 is 13.7 ± 0.5 µM. Besides, in test [3], the IC50 was 17.2 ± 2.3 µM. In the test on HeLa cells, the “Phase of cell cycle (% of cells) G0/G1” value is given as 53.1 ± 1.1 % of cells, the “Phase of cell cycle (% of cells) G2/M” value was 13.8 ± 1.1 % of cells and the “Phase of cell cycle (% of cells) S” value is 33.1 ± 0.9 % of cells.
As for `C=C(C)[C@@H]1CC[C@]2(C(=O)n3ccnc3)CC[C@]3(C)[C@H](CC[C@@H]4[C@@]5(C)C=CC(=O)C(C)(C)[C@@H]5CC[C@]43C)[C@@H]12` [Compound 46, 28-(1H-imidazol-1-yl)-lup-1,20 (29)-dien-3,28-dione], in the test on HeLa cells, the “Phase of cell cycle (% of cells) G0/G1” value is 64.6 ± 2.4 % of cells, the “Phase of cell cycle (% of cells) G2/M” value is 9.7 ± 1.3 % of cells and the “Phase of cell cycle (% of cells) S” value is on record as 25.6 ± 1.5 % of cells.
